Test results from patent US5244883A, “Nonapeptide bombesin antagonists” (The Administrators of the Tulane Educational Fund, priority 1990, dated 1993).
Where no end group is shown, it is not given here.

Experiments:
3T3 CELLS = format: cell-based, Murine; details: GRP 3 ng/ml alone, no antagonist; basal 207000 ± 4200
Procedure: (C) Inhibition of ^3 H-Thymidine incorporation by 3T3cells. SCLC cells were used 2 to 4 days after passage. Single cell suspensions were prepared by washing the cells (twice with PBS then pipetting them in PBS containing 0.2 g/liter glucose, 0.2 g/liter EDTA, and 14 mM lignocaine hydrochloride at 37° C. until the suspension appeared to be uniform (2-4 min). The cells were washed three times and resuspended in HITES without FCSB. Cultures were set up at 1.34×10^5 cells plated on day 0, all peptides added at same time in 1 ml. of RPMI-1640 medium plus HITES and 0.125% albumin. 48 hours later, 1 uc. of tritiated thymidine was added to each well and incubation continued for an additional 24 hours. Cells then were washed and deposited on glass filter paper and washed with ice cold 5% trichloro-acetic acid. Filter paper placed in vials containing scintillation fluid and counted for 1 minute. | 348,000 - 207,000 = 141,000 was taken as the stimulation

serum gastrin = test: Serum gastrin inhibition in vivo after GRP stimulation; details: rat, eight minutes after GRP 3 μg/100 g BW alone; control 16.7
Procedure: Bombesin analogs Peptides (5), (10) and (2) were tested in vivo on serum gastrin inhibition after GRP stimulation.

With “GRP: gastrin releasing peptide, peptide amide containing 27 amino-acid with bombesin-like properties; agonist stimulus (VPLPAGGGTVLTKMYPRGNHWAVGHLM-NH2; UniProt P07492 24-50, looked up)” as the substance, how does the “DPM ± S.E.” value (3T3 CELLS) read?
The value was 348000 ± 15300 DPM.

What about the serum gastrin level (serum gastrin) of the same substance?
The serum gastrin level was 105 pg/mL.
